In patent US11572341B2, “Biguanide compound and use thereof” (ImmunoMet Therapeutics Inc., priority 2014, dated 2023):
Read-outs that look alike come from different tables or passages of the source.

Experiments:
HCT116 cells = assay: Inhibitory effect against cancer cell proliferation (MTT); format: cell-based, human; conditions: Homo sapiens, read-out: IC50 (uM) @ HCT116
Procedure: The formazane crystals thus formed were dissolved using dimethyl sulfoxide (DMSO) and absorbance of the solution was measured at 560 nm. After culturing for 48 hours, […] synthesized in Examples was indicated as cell viability (%) according to each treated concentration.

AMPKa [pT172] = assay: AMPKa activation [pT172] in MCF7 cell; format: cell-based

CC/N=C(\NCc1ccc2c(c1)OCO2)NC(=N)N.Cl [Example 100, N1-(benzo[d][1,3]dioxol-5-yl)methyl-N2-ethyl Biguanide Hydrochloride]
IC50 (HCT116 cells; HCT-116, HCT116, MTT, 48 hours): > 100 µM
AMPKa activation [pT172] (Unit/ml) @ MCF7 cell (AMPKa [pT172]; 5 uM): 7.1 Unit/ml
AMPKa activation [pT172] (Unit/ml) @ MCF7 cell (AMPKa [pT172]; 10 uM): 9.0 Unit/ml
AMPKa activation [pT172] (Unit/ml) @ MCF7 cell (AMPKa [pT172]; 50 uM): 8.0 Unit/ml

CC/N=C(\NCCc1ccc2c(c1)OCO2)NC(=N)N.Cl [Example 101, N1-2-(benzo[d][1,3]dioxol-5-yl)ethyl-N2-ethyl Biguanide Hydrochloride]
IC50 (HCT116 cells; HCT-116, HCT116, MTT, 48 hours): > 100 µM
AMPKa activation [pT172] (Unit/ml) @ MCF7 cell (AMPKa [pT172]; 5 uM): 4.1 Unit/ml
AMPKa activation [pT172] (Unit/ml) @ MCF7 cell (AMPKa [pT172]; 10 uM): 3.6 Unit/ml
AMPKa activation [pT172] (Unit/ml) @ MCF7 cell (AMPKa [pT172]; 50 uM): 5.9 Unit/ml

C/N=C(\NCCc1ccc2c(c1)OCO2)NC(=N)N.Cl [Example 102, N1-2-(benzo[d][1,3]dioxol-5-yl)ethyl-N2-methyl Biguanide Hydrochloride]
IC50 (HCT116 cells; HCT-116, HCT116, MTT, 48 hours): > 100 µM
AMPKa activation [pT172] (Unit/ml) @ MCF7 cell (AMPKa [pT172]; 5 uM): 4.8 Unit/ml
AMPKa activation [pT172] (Unit/ml) @ MCF7 cell (AMPKa [pT172]; 10 uM): 2.8 Unit/ml
AMPKa activation [pT172] (Unit/ml) @ MCF7 cell (AMPKa [pT172]; 50 uM): 6.8 Unit/ml

Cl.N=C(N)NC(=N)Nc1ccc(Cl)cc1 [Example 110, N1-(4-chloro)phenyl Biguanide Hydrochloride]
IC50 (HCT116 cells; HCT-116, 48 h): 97.2 µM
AMPKa activation [pT172] (Unit/ml) @ MCF7 cell (AMPKa [pT172]; 50 uM): 3.9 Unit/ml

C=CCNC(=N)NC(=N)N.Cl [Example 111, N1-(2-prophene) Biguanide Hydrochloride]
IC50 (HCT116 cells; HCT-116, HCT116, MTT, 48 hours): 35.7 µM
AMPKa activation [pT172] (Unit/ml) @ MCF7 cell (AMPKa [pT172]; 5 uM): 11.4 Unit/ml
AMPKa activation [pT172] (Unit/ml) @ MCF7 cell (AMPKa [pT172]; 10 uM): 12.1 Unit/ml
AMPKa activation [pT172] (Unit/ml) @ MCF7 cell (AMPKa [pT172]; 50 uM): 30.2 Unit/ml

Cl.N=C(N)NC(=N)NCc1ccc2c(c1)OCO2 [Example 112, N1-(benzo[d][1,3]dioxol-5-yl)methyl Biguanide Hydrochloride]
IC50 (HCT116 cells; HCT-116, HCT116, MTT, 48 hours): > 100 µM
AMPKa activation [pT172] (Unit/ml) @ MCF7 cell (AMPKa [pT172]; 50 uM): 10.6 Unit/ml

CCCNC(=N)NC(=N)N.Cl [Example 114, N1-propyl Biguanide Hydrochloride]
IC50 (HCT116 cells; HCT-116, HCT116, MTT, 48 hours): 118 µM
AMPKa activation [pT172] (Unit/ml) @ MCF7 cell (AMPKa [pT172]; 50 uM): 6.1 Unit/ml

CC(C)N(C(=N)NC(=N)N)C(C)C.Cl [Example 115, N1,N1-diisopropyl Biguanide Hydrochloride]
IC50 (HCT116 cells; HCT-116, HCT116, MTT, 48 hours): > 100 µM
AMPKa activation [pT172] (Unit/ml) @ MCF7 cell (AMPKa [pT172]; 50 uM): 4.8 Unit/ml

CC(=O)c1ccc(NC(=N)NC(=N)N)cc1.Cl [Example 117, N1-(4-acetyl)phenyl Biguanide Hydrochloride]
IC50 (HCT116 cells; HCT-116, HCT116, MTT, 48 hours): > 100 µM
AMPKa activation [pT172] (Unit/ml) @ MCF7 cell (AMPKa [pT172]; 50 uM): 6.2 Unit/ml

Cl.N=C(N)NC(=N)Nc1ccccc1C(F)(F)F [Example 119, N1-(2-trifluoromethyl)phenyl Biguanide Hydrochloride]
IC50 (HCT116 cells; HCT-116, HCT116, MTT, 48 hours): 3.5 µM
AMPKa activation [pT172] (Unit/ml) @ MCF7 cell (AMPKa [pT172]; 5 uM): 6.9 Unit/ml
AMPKa activation [pT172] (Unit/ml) @ MCF7 cell (AMPKa [pT172]; 10 uM): 8.8 Unit/ml
AMPKa activation [pT172] (Unit/ml) @ MCF7 cell (AMPKa [pT172]; 50 uM): 8.5 Unit/ml

COc1ccc(NC(=N)NC(=N)N)cc1.Cl [Example 120, N1-(4-methoxy)phenyl Biguanide Hydrochloride]
IC50 (HCT116 cells; HCT-116, HCT116, MTT, 48 hours): > 100 µM
AMPKa activation [pT172] (Unit/ml) @ MCF7 cell (AMPKa [pT172]; 50 uM): 8.1 Unit/ml

CCCc1ccccc1NC(=N)NC(=N)N.Cl [Example 121, N1-(2-propyl)phenyl Biguanide Hydrochloride]
IC50 (HCT116 cells; HCT-116, HCT116, MTT, 48 hours): > 100 µM
AMPKa activation [pT172] (Unit/ml) @ MCF7 cell (AMPKa [pT172]; 50 uM): 9.0 Unit/ml

Cl.N=C(N)NC(=N)N1CCCCC1 [Example 123, N1-piperidine Biguanide Hydrochloride]
IC50 (HCT116 cells; HCT-116, HCT116, MTT, 48 hours): > 100 µM
AMPKa activation [pT172] (Unit/ml) @ MCF7 cell (AMPKa [pT172]; 5 uM): 6.6 Unit/ml
AMPKa activation [pT172] (Unit/ml) @ MCF7 cell (AMPKa [pT172]; 10 uM): 7.5 Unit/ml
AMPKa activation [pT172] (Unit/ml) @ MCF7 cell (AMPKa [pT172]; 50 uM): 12.6 Unit/ml

Cl.N=C(N)NC(=N)NCc1ccccc1 [Example 124, N1-benzyl Biguanide Hydrochloride]
IC50 (HCT116 cells; HCT-116, HCT116, MTT, 48 hours): 56.7 µM
AMPKa activation [pT172] (Unit/ml) @ MCF7 cell (AMPKa [pT172]; 50 uM): 8.4 Unit/ml
